Measurements taken from article PMC9170688, “Gametocyte-specific and all-blood-stage transmission-blocking chemotypes discovered from high throughput screening on Plasmodium falciparum gametocytes” (Communications Biology, 2022).
Where “and” joins values, the source holds several entries; their conditions need not be identical. Equal entries are not always repeated.

Experiments:
[1] = system: P. falciparum NF54 hsp86-PpyRE13 gametocytes; assay: P. falciparum gametocyte luminescence assay (PfLuc), line NF54 hsp86-PpyRE13; type: cell-based, Plasmodium falciparum; details: gametocytes, line NF54 HSP86; read-out: Pf Gametocytes NF54 HSP86 (IC50 nM)
Method: (§1) To exclude false positive compounds that may interfere with the click beetle CBG99 luciferase signal and to confirm the activity on gametocytes produced by other P. falciparum lines, we tested the above 638 compounds at a single concentration of 10 µM on gametocytes from two NF54 strain derived lines: pfs16-GFP-PyLUC (Photinus pyralis luciferase under the same pfs16 promoter)[14],[16],[27] and hsp86-PpyRE13 that was generated for this work to express the mutated Photinus pyralis PpyRE13 luciferase in gametocytes under the promoter of the pfhsp86 gene.
(§2) With the selected 84 compounds, the subsequent step aimed at determining the gametocyte inhibition potency and the parasite stage selectivity between the gametocytes and the asexual stages in the NF54 hsp86-PpyRE13. […] Similar data were obtained considering the gametocyte IC50 values measured in the NF54 pfs16-GFP-PyLUC strain (see Supplementary Data 2).
(§3) Parasite gametocyte luminescence assays were performed in 384-well plates (Thermo, 4332, USA) by infected red blood cells seeded at 40 µL/well at a haematocrit of 0.625% for the strain 3D7elo1-pfs16-CBG99, 1.875% for both strains NF54 hsp86-PpyRE13 and NF54 pfs16-GFP-PyLUC. Assay were performed in the medium: 10.44 g/L RPMI 1640 Medium (Gibco, 51800043), 5.95 g/L HEPES (Sigma, H4034), 50 mg/L Hypoxantine (Sigma, 56700), 10% heat inactivated human serum, 10 ml of Neomycin solution (Sigma, N1142) and 2.1 g/L NaHCO3 (Sigma, 144-55-8). Compounds or DMSO as control were pre dispensed on plates, from 10 mM DMSO stock solutions, via an acoustic droplet ejection device (ATS-100, EDC Biosystems) to achieve the final desired concentration. Assay plates were incubated for 48 h at 37 °C in 4% CO2, 3% O2, and 93% N2 modified atmosphere. After incubation, 20 µL/well of a solution of luciferin (Regis, 1-360242-200) potassium/sodium salt (300 µg/ml) are added to the assay plates and read at suitable luminescence detection after 1 min incubation at room temperature. The whole HTS was performed in 7 rounds of 30–80 plates each in two months’ time.

HeLa cells = assay: HeLa cell proliferation assay (CellTiter Glo); type: cell-based, human
Method: In addition, we tested the 84 compounds in a dose-response fashion on HeLa cells to quantitatively monitor their cytotoxicity potential.
HeLa cells (CCL-2, ATCC, USA) were cultured in DMEM without phenol red (Thermo, 11880, USA) + 10% FBS + 1X PenStrep + 1X Gln. They were plated in a 384-well plate (Thermo, 4334-11, USA) to a density of 2000 cells per well and let recover for 4 h at 37 °C, 5% CO2 in a humidified atmosphere. After the recovery, compounds were transferred to assay plates as per compound preparation method. Assay plates were then incubated at 37 °C, 5% CO2 in a humidified atmosphere for 72 h. Cell viability was measured by the CellTiTer Glo (Promega, G8080, USA) as per manufacturer instruction.

[2] = system: P. falciparum NF54 pfs16-GFP-PyLUC gametocytes; assay: P. falciparum gametocyte luminescence assay (PfLuc), line NF54 pfs16-GFP-PyLUC; type: cell-based, Plasmodium falciparum; details: gametocytes, line NF54 pfs16; read-out: Pf Gametocytes NF54 pfs16 (IC50 nM)
Method: as §1, §2, §3

[3] = system: P. falciparum NF54 hsp86-PpyRE13 asexual stages; assay: P. falciparum asexual stage assay (pLDH); type: cell-based, Plasmodium falciparum; details: asexual stages, line NF54 Hsp86 PpYRE13; read-out: NF54 Hsp86 PpYRE13 (IC50 nM)
Method: as §2
Parasite proliferation assays were performed in 384-well plates (Thermo, 4332, USA) with a starting parasitemia of 0.25% at a haematocrit of 2% by quantification of parasite lactate dehydrogenase (pLDH). Compounds or DMSO as control were pre dispensed on plates, from 10 mM DMSO stock solutions, via an acoustic droplet ejection device (ATS-100, EDC Biosystems) to achieve de final desired concentration. Assay plates were incubated for 72 h at 37 °C in 4% CO2, 3% O2, and 93% N2 modified atmosphere. After the incubation period, plates are frozen at −80 °C for two h and then thawed at room temperature for 2 h. Then, 50 µL of the developer solution (70 mM Tris-HCl pH 8.0, 0.5% Tween-20, 100 mM Lithium L-Lactate, 125 µM nitro blue tetrazolium, 2 U/ml diaphorase and 100 µM 3-Acetylpyridine Adenine Dinucleotide) are added to each well and let to react for 10 min. Absorbance was then read at 650 nm by a suitable spectrophotometer.

[4] = system: P. falciparum NF54 male gametocytes (stage V); assay: Male gamete exflagellation assay; type: cell-based, Plasmodium falciparum; details: for Inhibition of male exflagellation at 1 µM: 48 h
Method: The above selected 30 compounds were subjected to a phenotypic male gamete exflagellation assay. This assay measures the viability of male gametocytes by quantitating the final step of maturation into motile microgametes in vitro[24]. This process naturally occurs in the mosquito gut within minutes from the blood meal. The acquisition of time lapse videos of gamete motility in bright field microscopy and the subsequent analysis to count exflagellation centres were performed in an automated HTS format in 384-well plates. The compounds were tested in two independent biological replicates at the concentration of 1 µM. […] The results of this study led to the identification of 16 compounds with anti-exflagellation activity (Fig. 4). […] The standard membrane feeding assay (SMFA) is used to measure the parasite transmission through mosquito. In this assay, mature stage V gametocytes of the P. falciparum strain NF54-hsp70-luc were treated with 1 and 10 µM of the nine selected compounds for 24 h, added with human red blood cells and serum to achieve a haematocrit of 50% and then fed to mosquitoes. Luminescence was analyzed in […] 8 days post-feeding.
Asexual parasites of the NF54 line, kindly obtained from Elena Levashina’s laboratory (Max Plank Institute for Infection Biology, Berlin, Germany), were seeded at 1% total parasitemia and grown for 16 days changing medium every day until development of stage V gametocytes (about 1–2% of stage V gametocytemia). 100 µl of gametocyte culture was seeded in each well of a 96 well-plate and 100 µl of 2× concentration of compounds or DMSO as control were added to each well to achieve the desired final concentration. Assay plates were incubated for 48 h at 37 °C in 4% CO2, 3% O2, and 93% N2 modified atmosphere. After the incubation period, 100 µl of medium were removed from each well and the other 100 µl were transferred to a black imaging 96 well plate (ibidi) containing 100 µl of complete medium supplemented with 40 µM of xanthurenic acid. After 15 min, exflagellation events were captured by three ten-second videos each well with an Olympus IX83 inverted microscope with a UPLSAPO 10× N.A. 0.75 objective (Olympus, Japan), equipped with a Hamamatsu ORCA-Flash 4.0 V3 camera. Each video was analyzed using the Icy bio-image analysis software (http://icy.bioimageanalysis.org/) to count the number of exflagellation events.

[5] = system: P. falciparum NF54 male gametocytes (stage V); assay: Male gamete exflagellation assay; type: cell-based, Plasmodium falciparum; details: 48 h
[6] = system: P. falciparum 3D7elo1-pfs16-CBG99 gametocytes; assay: P. falciparum gametocyte luminescence assay (PfLuc), primary HTS line 3D7elo1-pfs16-CBG99; type: cell-based, Plasmodium falciparum; details: 10 µM MB, Rep1-Rep2
Source text: In this line, the CBG99 luciferase-coding region (from the click beetle Pyrophorus plagiophthalamus) is integrated into the parasite genome and expressed under the control of the pfs16 gametocyte-specific promoter.
Obtaining an accurate gametocyte synchronization with minimal parasite handling is of paramount importance to establish a robust and reliable HTS assay. To this aim, the timing of addition of N-acetyl glucosamine (NAG), used to clear residual asexual stages after appearance of stage I gametocytes, was optimized. […] Using these cultures, different haematocrit percentages (0.625, 1.25 and 2.5%) and two incubation times (48- and 72 h) were tested to identify the optimal luciferase readout.
A collection of 119.059 compounds of the CNCCS library was tested on gametocytes of the 3D7elo1-pfs16-CBG99 strain at 10 µM using the protocol described above. […]
as §3

[7] = system: P. falciparum strain NF54-hsp70-luc stage V gametocytes fed to Anopheles stephensi mosquitoes; assay: whole plant or invertebrate; type: in vivo, Plasmodium falciparum; details: for transmission blocking in SMFA: 24 h treatment; for luminescence signal of individual mosquitoes (SMFA, Fig. 5): one value per mosquito
Method: The above selected 30 compounds were subjected to a phenotypic male gamete exflagellation assay. This assay measures the viability of male gametocytes by quantitating the final step of maturation into motile microgametes in vitro[24]. This process naturally occurs in the mosquito gut within minutes from the blood meal. The acquisition of time lapse videos of gamete motility in bright field microscopy and the subsequent analysis to count exflagellation centres were performed in an automated HTS format in 384-well plates. The compounds were tested in two independent biological replicates at the concentration of 1 µM. […] The standard membrane feeding assay (SMFA) is used to measure the parasite transmission through mosquito. In this assay, mature stage V gametocytes of the P. falciparum strain NF54-hsp70-luc were treated with 1 and 10 µM of the nine selected compounds for 24 h, added with human red blood cells and serum to achieve a haematocrit of 50% and then fed to mosquitoes. Luminescence was analyzed in the mosquito salivary glands 8 days post-feeding.
SMFA was performed commercially by TropiQ Health Sciences (Nijmegen, The Netherlands). Test samples were diluted in DMSO and then in RPMI medium (Gibco, 51800043) to achieve a final DMSO concentration of 0.1%. Diluted samples were combined with stage V gametocytes from P. falciparum strain NF54-hsp70-luc and incubated for 24 h. Subsequently, human red blood cells and human serum with the sample were added to achieve a haematocrit of 50%. The blood meal was fed to two-day old Anopheles stephensi mosquitoes that were starved the night prior to the blood meal. […] Mosquito infection was analyzed 8 days post-feeding by luminescence measurements of whole mosquitoes as described previously. For each feeder, luminescence intensity was analyzed in 15–24 mosquitoes per feeder (N = 1, n = 15–24). Luminescence background levels were determined from 15–24 uninfected mosquitoes. Controls: vehicle (0.1% DMSO) in duplicate.

Structure (SMILES): O=S(=O)(NCC1(O)CCOc2ccccc21)c1ccc(Br)s1 (stereo not drawn) [Compound 84, reference compound]
- IC50 [1]: 29600 nM
- IC50 (HeLa cells): > 32000 nM
- IC50 [2]: 11300 nM
- IC50 [3]: > 51200 nM
- Inhibition of male exflagellation at 1 µM ([4]; Replicate 1): 1.9
- Inhibition of male exflagellation at 1 µM ([4]; Replicate 2): 0
- Exflagellation @ 1 uM (% of DMSO) 1 ([4]; 1 uM, replicate 1): 1.90 % of DMSO
- Exflagellation @ 1 uM (% of DMSO) 2 ([4]; 1 uM, replicate 2): 0.00 % of DMSO

Structure (SMILES): CN(C)c1ccc2nc3ccc(=[N+](C)C)cc-3sc2c1 [MB, methylene blue]
- Inhibition of male exflagellation at 1 µM ([5]; Replicate 3): 5.8
- Inhibition of male exflagellation at 1 µM ([5]; Replicate 4): 7.7
- Luminescence counts ([6]; 48 h, hematocrit 0.625%): 88 RLU and 72 RLU
- Luminescence counts ([6]; 48 h, hematocrit 2.5%): 208 RLU and 224 RLU
- Luminescence counts ([6]; 72 h, hematocrit 0.625%): 64 RLU and 56 RLU
- Luminescence counts ([6]; 72 h, hematocrit 1.25%): 48 RLU and 56 RLU
- Luminescence counts ([6]; 72 h, hematocrit 2.5%): 80 RLU and 88 RLU
- Inhibition of male exflagellation at 1 µM ([4]; Replicate 1): 2.985
- Inhibition of male exflagellation at 1 µM ([4]; Replicate 2): 1.163

Structure (SMILES): CS(=O)(=O)c1ccc(-c2cnc(N)c(-c3ccc(C(F)(F)F)nc3)c2)cc1 [MMV0048, reference compound]
- transmission blocking in SMFA ([7]; 1 µM): abolished the parasite transmission
- transmission blocking in SMFA ([7]; 10 µM): abolished the parasite transmission

Structure (SMILES): CS(=O)(=O)c1ccc(-c2cnc(N)c(-c3ccc(C(F)(F)F)nc3)c2)cc1 [MMV-048]
- luminescence signal of individual mosquitoes (SMFA, Fig. 5) ([7]; compound at 1 µM): 6 and 9 and 5 and 28 and 32 and 4 and 3 and 8 and 58 and 2 and 20 and 83
- luminescence signal of individual mosquitoes (SMFA, Fig. 5) ([7]; compound at 10 µM): 6 and 8 and 5 and 3 and 7
